Data reported in patent US9066516B2, “Uses of thaxtomin and thaxtomin compositions as herbicides” (priority 2008, dated 2015).

Experiments:
Test in all cases: Pre-emergence test of MBI-005, field (Example 12)
Assay type in all cases: in vivo
Settings in all cases: pre-emergent
[1] = tested on: Common groundsel (Senecio vulgaris)
Method: (§1) In field testing, field soil containing weed seeds were treated with 38.2 L MBI-005/ha at a spray volume of 280 L/ha using a CO2 sprayer with flat fan nozzles. Treatments, including water as the negative control and Gallery as the positive control, were replicated four times and applied twice at a four week interval. Treatments were evaluated visually as % cover and above-ground fresh weights per container were taken.

[2] = tested on: Shepherd's purse (Capsella bursa-pastora)
Method: as §1

[3] = tested on: Henbit (Lamimum amplexicaule)
Method: as §1

[4] = tested on: Flexuous bittercress (Cardamine flexuosa)
Method: as §1

[5] = tested on: Common yellow oxalis (Oxalis stricta)
Method: as §1

[6] = tested on: New Zealand moss (Sagina procumbens)
Method: as §1

[7] = tested on: Eclipta (Eclipta alba)
Method: as §1

[8] = tested on: Dandelion (Taraxacum oficinale)
Method: as §1

[9] = tested on: Velvetleaf (Abutilon theophrasti)
Method: as §1

[10] = tested on: Bittercress (Cardamine hirsuta)
Method: as §1

[11] = tested on: Chickweed (Stellaria media)
Method: as §1

[12] = tested on: Marsh watercress (Rorippa islandica)
Method: as §1
Also: ranges in brackets are in %.

## CN1C(=O)[C@](O)(Cc2cccc(O)c2)N(C)C(=O)[C@@H]1Cc1c[nH]c2cccc([N+](=O)[O-])c12 [thaxtomin A]
[1]
  Rating at 0.1 mg/ml (Reduction of Germination): ++++ (95-100)
[2]
  Rating at 0.1 mg/ml (Reduction of Germination): ++++ (95-100)
[3]
  Rating at 0.1 mg/ml (Reduction of Germination): +++ (85-94)
[4]
  Rating at 0.1 mg/ml (Reduction of Germination): ++ (60-84)
[5]
  Rating at 0.1 mg/ml (Reduction of Germination): ++++ (95-100)
[6]
  Rating at 0.1 mg/ml (Reduction of Germination): ++++ (95-100)
[7]
  Rating at 0.1 mg/ml (Reduction of Germination): ++ (60-84)
[8]
  Rating at 0.1 mg/ml (Reduction of Germination): ++++ (95-100)
[9]
  Rating at 0.1 mg/ml (Reduction of Germination): ++ (60-84)
[10]
  Rating at 0.1 mg/ml (Reduction of Germination): +++ (85-94)
[11]
  Rating at 0.1 mg/ml (Reduction of Germination): ++++ (95-100)
[12]
  Rating at 0.1 mg/ml (Reduction of Germination): ++++ (95-100)
